Patent publication US11684599B2, “Very-long-chain polyunsaturated fatty acids, elovanoid hydroxylated derivatives, and methods of use” (Board of Supervisors of Louisiana State University and …, priority 2017, dated 2023)

Key:
[1] = test system: ARPE-19 cells under UOS; test: Western blot of pro-survival and pro-apoptotic proteins in RPE cells under UOS; assay type: cell-based, human; conditions: for Prohibitin (type-1) expression: sodium salts and methyl ester forms, concentration-dependent 100-200 nM; for pro-apoptotic Bax / pro-apoptotic Bid / pro-apoptotic Bim: sodium salts or methyl esters
Procedure: ARPE19 cells at 75-80% confluence (72 h growth in DMEM/F12+10% FBS) in 6-well plates were serum-starved for 8 h before exposure. The serum-starved cells were treated with TNF-α (Sigma-Aldrich, St. Louis, Mo.) (10 ng/ml) and H2O2 (600 μM) to induce oxidative stress and challenged with increasing concentrations (50-500 nM) of VLC-PUFA (C32:6n3 and C34:6n3) simultaneously with oxidative stress for 16 h (apoptosis) and 6 h (Western-blot) before detection of apoptosis and harvesting for protein analysis. In some experiments, DHA at a concentration of 100 nM and 15-LOX-1 inhibitor PD146176 at a concentration of 1 μM was added to treat the RPE cells under stress. Cell extracts were made and protein concentrations adjusted by Bio-Rad (Hercules, Calif.) protein reagent and used for Western blot analysis.
Bcl-2 family proteins, SIRT1 and Proinhibitin (type-1), and Iduna proteins were analyze by Western blot analysis. In brief, 20-25 μg equivalents of each cell extracts were subject to electrophoresis on a 4-12% gel (Promega) at 125 V for 2 h. The proteins were transferred to nitrocellulose membrane by I-blot transfer apparatus. The membranes were subjected to treatment with primary antibodies specific for Bcl-2, Bcl-xL, Bax, Bid, Bim, SIRT1 and Prohibitin (type-1) (Santa Cruz Biotechnology) and Iduna antibody (Neuro-Mab Lab, UCLA, Los Angeles, Calif.) overnight at 4° C. and probed for 45 mins with secondary antibody, goat anti-mouse Ig:horseradish peroxidase, and horseradish peroxidase-conjugated anti-biotin antibody, and then proteins were evaluated by using an ECL kit (Amersham).

[2] = test system: primary human RPE cells; test: UOS-induced cell death in primary human RPE cells (Hoechst staining); assay type: cell-based; conditions: NPD1 200 nM, 16 h; H2O2 (800 μM) alone 50% cell death
Procedure: Primary human retinal pigment epithelia (RPE) cells, prepared from donor eyes without eye pathology, were plated and transformed after passage eight. Cells were cultured in T75 flasks in MEM medium containing 10% FBS, 5% NCS, MEM-NEAA (ThermoFisher Scientific, Waltham, Mass.), 1× penicillin/streptomycin and 10 ng/ml FGF at 37° C. 5% CO2, 99% relative humidity for 24-48 h followed by a 24-h incubation with 10 μM free 32:6 and 34:6 fatty acid mixture.
For cell viability assay experiments hRPE cells were treated concomitantly with NPD1 (200 nM), 32-6, 34-6 (3 μM each) fatty acids or both 32-6 and 34-6 simultaneously. The hRPE medium was supplemented with 3 μM of 32-6 and 34-6 for the entire duration of the experiment. 15 lox-1 inhibitor (10 μM) was added to the cells 1 hour prior the OS induction and kept throughout the experiment. Cells were fixed with 4% PFA and stained with Hoescht.
To assess cell death, hRPE and ARPE-19 cells were fixed with methanol for 15 mins, washed with 1×PBS then loaded with 2 μM Hoechst dissolved in a Locke's solution (Promega) and incubated for another 15 mins before imaging. Cells were then viewed by using a Zeiss LSM 510 confocal microscope under UV fluorescence. Images were recorded and cell apoptosis was assessed by using an automated unbiased method.

[3] = test system: ARPE-19 cells; test: UOS-induced apoptosis in ARPE-19 cells (Hoechst-positive pyknotic cells); assay type: cell-based, human; conditions: 1 μM, RPE cells undergoing UOS
Procedure: FIGS. 6A and 6B depicts immunostaining of primary human RPE cells using specific markers ZO-1 (Zona occludens-1), RPE65, MITF (Micro-ophtalmia-associated Transcription Factor) and β-catenin, as well as light microscopy depicting primary human RPE cell morphology at different passages in culture. ARPE-19 cells were grown and maintained in T-75 mM flasks in DMEM F-12 medium containing 10% FBS and incubated at 37° C. with a constant supply of 5% CO2. Cells at 75-80% confluence (72 h growth in DMEM/F12+10% FBS) in 6-well plates were serum-starved for 8 h before exposure. The serum-starved cells were treated with TNF-α (Sigma-Aldrich, St. Louis, Mo.) (10 ng/ml) and H2O2 (600 μM) to induce oxidative stress and challenged with increasing concentrations (50-500 nM) of VLC-PUFA (C32:6n3 and C34:6n3) simultaneously with oxidative stress for 16 h (apoptosis) and 6 h (Western-blot) before detection of apoptosis and harvesting for protein analysis. In some experiments, DHA at a concentration of 100 nM and 15-LOX-1 inhibitor PD146176 at a concentration of 1 μM was added to treat the RPE cells under stress. Cell extracts were made and protein concentrations adjusted by Bio-Rad (Hercules, Calif.) protein reagent and used for Western blot analysis. To assess cell death, hRPE and ARPE-19 cells were fixed with methanol for 15 mins, washed with 1×PBS then loaded with 2 μM Hoechst dissolved in a Locke's solution (Promega) and incubated for another 15 mins before imaging. Cells were then viewed by using a Zeiss LSM 510 confocal microscope under UV fluorescence. Images were recorded and cell apoptosis was assessed by using an automated unbiased method.

[4] = test system: cerebral-cortical mixed neuronal cells and hippocampal neurons; test: NMDA excitotoxicity of neurons in culture, cell viability; assay type: cell-based, rat
Description: Primary cultures of cortical and hippocampal neurons were harvested from 18-day-old embryos (E18) taken from timed-pregnant, two-month-old Sprague-Dawley (SD) rats (Charles River Lab., Wilmington, Mass.). Briefly, timed-pregnant SD rats were euthanized and embryos were collected in sterile conditions. Embryonic brains were dissected out by forceps on ice and placed in a petri dish containing ice-cold Hank's Balanced Salt Solution (HBSS) (GIBCO). Meninges were removed under a dissecting microscope and cortical tissues were chopped into small pieces with micro-spring scissors. These tissues were transferred to 15 ml tubes containing trypsin-EDTA (0.025% in HBSS) and DNase I. The tubes were incubated in 37° C. chamber for 15 mins and were agitated every 5 mins. After stopping the trypsinization with 5 ml 10% FBS, these tissues were triturated 15 times with a fire polished Pasteur pipet. Cell clumps were left to settle for 2 mins and the supernatant was transferred to a 15 ml Eppendorf tube. The supernatant was filtered through a 70 μm pore-sized filter (Corning cell strainer) and centrifuged for 5 mins at 1000 rpm. The cells were then resuspended in Neurobasal medium (GIBCO) containing 2% B27 (GIBCO) and 2% N2 (GIBCO) supplements, along with 0.5 mM glutamine, 50 U/ml penicillin/streptomycin.
Cells were counted using a Neubauer hemocytometer. 1×10^6 cells were seeded on poly-D-lysine-coated 12 well cell culture dish (CORNING) and cultured in incubator (37° C., 5% CO2). Culture medium was first replaced after 24 h, then half of the medium was replaced with fresh medium every three days. As a result, approximately, 90% purity of neurons was obtained as determined by class-III-β tubulin, GFAP and Hoechst 33258 staining. Cells were maintained in culture for about 2 weeks until they were exposed to uncompensated oxidative stress, OGD, or NMDA excitotoxicity.
After 90 mins of OGD exposure, cells were returned to the original medium (Neurobasal medium (GIBCO) containing 2% B27 (GIBCO) and 2% N2 (GIBCO) supplements, along with 0.5 mM glutamine, 50 U/ml penicillin/streptomycin) and placed in a normoxic chamber (37° C., 5% CO2) for 2 h. Then the medium was changed with medium containing either ELV-N32 or ELV-N34 [500 nM] and maintained in a normoxic chamber (37° C., 5% CO2) for 12 h, after which cells were sampled and assayed for cell viability using different methods as previously described (25-28). Cerebral cortical mixed neuronal cells or hippocampal cells in culture were exposed to either NMDA or uncompensated oxidative stress (UOS) for 12 h by addition of either NMDA (25 μM, 50 μM, or 100 μM) concentration or by the addition of TNFα (10 ng/mL) and H2O2 (50 μM, 100 μM, or 200 μM). Cell viability and neuroprotection in the presence of ELV-N32, ELV-N34, 32:6, or 34:6 were assayed after 12 h.
Cells were washed with 1× Dulbecco's Phosphate Buffered Saline (DPBS) containing no calcium or magnesium (GIBCO) and fixed for 10 mins using ice-cold 4% paraformaldehyde (PFA) followed by 15 mins incubation in 100% methanol. Cells were washed with 1× Phosphate Buffered Saline (PBS) pH 7.4 (GIBCO) and incubated in PBS containing 20 μM Hoechst 33258 (Molecular Probes) for 20 mins. Cells were then washed 3 times with 1×PBS and stored in 1×PBS at 4° C. until they were imaged for microscopy.
One 4×4 tile mosaic was acquired from the center of each well using a Zeiss 510 Meta laser confocal microscope and LSM 510 Meta software. Images were imported into image analysis software ImageJ (National Institutes of Health, Bethesda, Md.) and batch processed using custom macros. An Otsu auto threshold was applied to each image of Hoechst-stained nuclei, and the area of each detected object was recorded. Objects with areas <10 μm^2 were excluded from analysis. To estimate percentage non-pyknotic nuclei, a size cutoff value was chosen above which objects were assumed to be non-pyknotic. […]

CC/C=C\C[C@H](O)\C=C/C=C/C=C/[C@H](O)C/C=C\C/C=C\CCCCCCCCCCCCC(=O)O [ELV-N32, (14Z,17Z,20R,21E,23E,25Z,27S,29Z)-20,27-dihydroxydo-triaconta-14,17,21,23,25,29-hexaenoic acid]
Prohibitin (type-1) expression [1]: upregulated
pro-apoptotic Bax [1]: decreased
pro-apoptotic Bid [1]: decreased
pro-apoptotic Bim [1]: decreased

CC/C=C\C[C@H](O)\C=C/C=C/C=C/[C@H](O)C/C=C\C/C=C\CCC(=O)O [NPD1, 10R,17S-dihydroxy-docosa-4Z,7Z,11E,13E,15Z,19Z-hexaenoic acid]
apoptosis [2]: 11%

c1ccc2c(c1)SCc1c-2[nH]c2ccccc12 [PD146176, reference compound]
effect of 15-LOX-1 inhibitor on ELV-induced upregulation ([1]; 1 μM, ARPE-19 cells undergoing UOS): blocked these effects
effect of 15-LOX-1 inhibitor on ELV-mediated inhibition of apoptosis [3]: compensate for ELV-mediated inhibition of apoptosis

MK801 maleate [reference compound]
NMDA excitotoxicity ([4]; 10 μM): overcome

CC/C=C\C[C@H](O)\C=C/C=C/C=C/[C@H](O)C/C=C\C/C=C\CCCCCCCCCCCCCCC(=O)O [ELV-N34, (16Z,19Z,22R,23E,25E,27Z,29S,31Z)-22,29-dihydroxytetra-triaconta-16,19,23,25,27,31-hexaenoic acid]
NMDA-induced neuronal death ([4]; ELV (Na or Me) 200 nM or 500 nM added along with NMDA 25, 50 or 100 μM, 12 h): compensated for
Prohibitin (type-1) expression [1]: upregulated
pro-apoptotic Bax [1]: decreased
pro-apoptotic Bid [1]: decreased
pro-apoptotic Bim [1]: decreased
